Test results: article PMC9171976 (Frontiers in Nutrition, 2022)
Blank lines part the entries; values can stand above or below the compound they belong to.

Tests used:
[1] = male, human, in vivo, 20 mg
[2] = rats; single oral dose of green tea extract 400 mg/kg 30 min before simvastatin; cited from earlier work
clinical = conditions: male, human, in vivo, 20 mg
[3] = Simvastatin-herb pharmacokinetic interaction study, plasma simvastatin lactone and acid by LC-MS/MS; conditions: male, human, po, 20 mg
human OATP1B1 = system: human OATP1B1; parameters: method as in PMID 32006472; conditions: low concentration; CHO cells; cited from earlier work
[4] = parameters: method as in PMID 24419562; conditions: healthy volunteers; cited from earlier work
[5] = same extract given daily for 2 weeks and simultaneously with the dose of rosuvastatin; cited from earlier work

AUC0–24h [1]: 12.1 (54.6) h⋅μg/L
AUC(0-t) (clinical; AUC0–24h): 16.1 ng·h/mL
half-life (clinical; po, T1/2): 3.94 h
Tmax (clinical; po, Tmax): 3.5 h
Structure (SMILES): CCC(C)(C)C(=O)O[C@H]1C[C@@H](C)C=C2C=C[C@H](C)[C@H](CC[C@@H](O)C[C@@H](O)CC(=O)O)[C@H]21 [Simvastatin acid, simvastatin acid]
Increase of AUC0–6h with green tea extract [2]: 2.0 fold

half-life ([3]; T1/2, 18 subjects, simvastatin 20 mg with green tea extract, geometric mean (% CV)): 4.96 h
half-life ([3]; T1/2, 18 subjects, simvastatin 20 mg with soy isoflavones, geometric mean (% CV)): 4.51 h
half-life ([3]; T1/2, SLCO1B1 521CC (n = 4), after green tea): 3.98 h
half-life ([3]; T1/2, SLCO1B1 521CC (n = 4), after soy isoflavones): 3.9 h
half-life ([3]; T1/2, SLCO1B1 521CC (n = 4), baseline): 4.83 h
half-life ([3]; T1/2, SLCO1B1 521TC (n = 8), after green tea): 4.72 h
half-life ([3]; T1/2, SLCO1B1 521TC (n = 8), after soy isoflavones): 4.71 h
half-life ([3]; T1/2, SLCO1B1 521TC (n = 8), baseline): 4.54 h
half-life ([3]; T1/2, SLCO1B1 521TT (n = 6), after green tea): 6.15 h
half-life ([3]; T1/2, SLCO1B1 521TT (n = 6), after soy isoflavones): 4.71 h
Structure (SMILES): CCC(C)(C)C(=O)O[C@H]1C[C@@H](C)C=C2C=C[C@H](C)[C@H](CC[C@@H]3C[C@@H](O)CC(=O)O3)[C@H]21 [Simvastatin lactone, simvastatin]
Effect of green tea extract on t1/2 [2]: no effect

Structure (SMILES): O=C(O[C@@H]1Cc2c(O)cc(O)cc2O[C@@H]1c1ccc(O)c(O)c1)c1cc(O)c(O)c(O)c1 [epicatechin gallate (ECG), epicatechin gallate]
Stimulating effect on OATP1B1-mediated DCF uptake (human OATP1B1): about 160%

Structure (SMILES): CC(C)(C)NCC(O)COc1cccc2c1CC(O)C(O)C2 (stereo not shown) [nadolol]
Reduction of systemic exposure with green tea taken as a drink [4]: 85%

Structure (SMILES): CC(C)c1nc(N(C)S(C)(=O)=O)nc(-c2ccc(F)cc2)c1/C=C/[C@@H](O)C[C@@H](O)CC(=O)O [rosuvastatin]
Reduction of systemic exposure with green tea extract [5]: about 20%
